Test results reported in ChEMBL document CHEMBL4483862, “Open-source discovery of chemical leads for next-generation chemoprotective antimalarials” (2018).

Test system: Plasmodium berghei
Assay: Luciferase/luciferin-expressing antifolate-resistant parasites were used to infect a culture of HepG2 cells that were pre-incubated with compounds. Infected hepatocytes emit light due to the luciferase reaction. Assay results are presented as the percent inhibition of light emission compared to control. […]
Type: functional
Conditions: sporozoite; for IC50: read-out: LUCIFERASE INFECTION ASSAY - IC50; for IC90: read-out: LUCIFERASE INFECTION ASSAY - IC90

| SMILES | IC50 [µM] | IC90 [µM] |
| --- | --- | --- |
| Cc1cccc2sc(NC(=O)c3cccc(S(=O)(=O)N4CCc5ccccc54)c3)nc12 | > 10 | > 10 |
| CCc1cc2c(=O)n(Cc3ccco3)c(SCC(=O)N(C)C3CCS(=O)(=O)C3)nc2s1 (stereo unspecified) | > 10 | > 10 |
| N#CCCN(C(=O)COC(=O)c1ccc2c(c1)NC(=O)CS2)c1ccc2c(c1)OCCO2 | > 10 | > 10 |
| COc1cc2nc(SCc3c(C)noc3C)n(CCC3=CCCCC3)c(=O)c2cc1OC | > 10 | > 10 |
| CCc1cccc(CC)c1N=C(S)NC(C)c1ccccc1 (stereo unspecified) | > 10 | > 10 |
| Cc1ccc2nc(C)c(CN3CCN(c4ccc([N+](=O)[O-])cc4Cl)CC3)n2c1 | > 10 | > 10 |
| COc1cc2c(cc1OC)C1(NCC2)C(=O)Nc2ccccc21 (stereo unspecified) | > 10 | > 10 |
| Cc1cccc(NC(=O)CN(C)C(=O)/C=C/c2ccccc2)c1C | > 10 | > 10 |
| CCCc1ccc(C(=O)C(C)Sc2nnc(-c3ccc(OC(F)F)cc3)o2)cc1 (stereo unspecified) | > 10 | > 10 |
| COc1ccccc1NCC(=O)N/N=C/c1cc(C)c2cc(C(C)C)ccc(C)c1-2 | > 10 | > 10 |
| N#C/C(=C\c1cn(Cc2ccccc2)nc1-c1cccnc1)c1ccc([N+](=O)[O-])cc1 | 0.786 | 1.62 |
| CC(C)(C)c1ccc(OCC(=O)NNC(=O)Cc2csc(-c3ccccc3)n2)cc1 | > 10 | > 10 |
| CCOC(=O)/C=c1\s/c(=C\c2ccc(Cl)cc2)c(=O)n1CC(=O)c1ccc(Cl)cc1 | > 10 | > 10 |
| CCCN(C(=O)c1ccccc1CCc1ccccc1)c1nc(-c2ccc(Cl)cc2Cl)cs1 | > 10 | > 10 |
| COC(=O)C(C(=O)CSc1nnc(-c2ccc(C(C)(C)C)cc2)n1C)=C1Nc2ccccc2N1 | > 10 | > 10 |
| CCOc1ccccc1NC(=O)COC(=O)c1cc(S(=O)(=O)Nc2cccc(C)c2)ccc1C | > 10 | > 10 |
| CCCn1c(N)c(C(=O)CSc2nc3sc(C)c(C)c3c(=O)n2-c2ccccc2)c(=O)[nH]c1=O | > 10 | > 10 |
| Cc1ccc(Cn2nc(C)c3cc(C(=O)OCC(=O)c4cc(C)n(CC5CCCO5)c4C)sc32)cc1 (stereo unspecified) | > 10 | > 10 |
| Cc1cc(C)cc(N(C(=O)C23CC4CC(CC(C4)C2)C3)C2C=CS(=O)(=O)C2)c1 (stereo unspecified) | > 10 | > 10 |
| C/C(c1cccs1)=[N+](/[O-])C(C)/C(=N/O)c1ccco1 (stereo unspecified) | > 10 | > 10 |
| CC(C)N(CC(=O)Nc1ccc(Cl)cc1C(F)(F)F)C(=O)CNC(c1ccccc1)c1ccccc1 | > 10 | > 10 |
| Cn1ccnc1C(=O)c1cc(SCC(=O)N2CCN(S(=O)(=O)c3ccc4ccccc4c3)CC2)nc2ccccc12 | > 10 | > 10 |
| COc1ccc(Cl)cc1NC(=O)CN(C)C(=O)c1cc(-c2ccccc2)nc2c1cnn2C(C)C | > 10 | > 10 |
| CCCn1c(=O)n(C)c(=O)c2c(SCc3cccc([N+](=O)[O-])c3)nc(CC(C)C)nc21 | > 10 | > 10 |
| CCc1ccccc1Nc1nc(N)nc(CN2CCN(S(=O)(=O)Cc3ccccc3)CC2)n1 | > 10 | > 10 |
| Cc1nnc(SCC(=O)Nc2ccc(Cl)cn2)n(N)c1=O | > 10 | > 10 |

| SMILES | IC50 [µM] | IC90 [µM] |
| --- | --- | --- |
| COc1cc2c(cc1NC(=O)C(C)NCC(c1ccccc1)N(C)C)oc1ccccc12 (stereo unspecified) | > 10 | > 10 |
| CCOC(=O)c1c(NC(=O)COC(=O)c2c(C)noc2C)sc(-c2ccccc2)c1C | > 10 | > 10 |
| Cc1nc(SCC(=O)NCCN2C(=O)CSC2=O)n(C2CCCCC2)c1C | > 10 | > 10 |
| Cc1c(NC(=O)c2cccc(Nc3nc(-c4cccs4)nc4ccccc34)c2)c(=O)n(-c2ccccc2)n1C | 9.1 | > 10 |
| COc1cc(OC)cc(C(=O)N(Cc2ccccc2)c2nc(-c3ccc(Cl)cc3Cl)cs2)c1 | > 10 | > 10 |
| CCCCN(C(=O)CCC(=O)OCC(=O)NC(=O)NCC)c1c(N)n(CCC)c(=O)[nH]c1=O | > 10 | > 10 |
| CCc1sc2nc(SCc3cc(=O)n4cc(Br)ccc4n3)n(-c3cccc(OC)c3)c(=O)c2c1C | > 10 | > 10 |
| COC(=O)c1ccc2c(=O)nc(CSc3nnc(-c4ccccc4)c(-c4ccccc4)n3)[nH]c2c1 | > 10 | > 10 |
| CC1CCc2sc(C(=O)OCC(=O)NCCN3C(=O)CSC3=S)cc2C1 (stereo unspecified) | > 10 | > 10 |
| Cn1c(C(=O)N2CCN(C(c3ccccc3)c3ccccc3)CC2)cc2c(=O)n3ccccc3nc21 | > 10 | > 10 |
| CCCn1c(=O)n(C)c(=O)c2c(SCc3cc(=O)oc4cc(CC)ccc34)nc(C(C)(C)C)nc21 | > 10 | > 10 |
| Cc1c(C(=O)OCC(=O)N(Cc2ccccc2)Cc2ccccc2)sc2nc3n(c(=O)c12)CCC3 | 3.04 | 3.43 |
| Nn1c(Cc2ccccc2F)nnc1SCC(=O)NCc1ccc2c(c1)OCO2 | > 10 | > 10 |
| Cc1cccn2cc(CN3CCN(S(=O)(=O)c4ccc(Cl)c(C(F)(F)F)c4)CC3)nc12 | > 10 | > 10 |
| CC(=O)N1CCC(C(=O)Nc2cc(C(F)(F)F)ccc2NC2CCCCC2)CC1 | > 10 | > 10 |
| C=CCN(C(=O)c1ccccc1OCc1c(C)noc1C)c1nc2c(s1)CCCC2 | > 10 | > 10 |
| Cc1cc(C(=O)CSc2nnc(Cn3cnc4ccccc43)n2-c2ccccc2Cl)c(C)n1C | > 10 | > 10 |
| CSc1ccccc1NC(=O)CN(C)c1nc(CSc2ccccc2)nc2sc3c(c12)CCC3 | > 10 | > 10 |
| O=C(CN1CCN(C/C=C/c2ccccc2)CC1)NC(c1ccccc1)c1ccccc1 | > 10 | > 10 |
| COc1ccc2c(Cn3ncc(Cl)c(Cl)c3=O)cc(=O)oc2c1 | 4.21 | 7.19 |
| COc1ccccc1N(Cc1cc2ccc(C)cc2[nH]c1=O)S(=O)(=O)c1ccccc1 | > 10 | > 10 |
| O=[N+]([O-])c1cc2c(cc1C(O)c1nnc(-c3ccccc3)o1)OCO2 (stereo unspecified) | 1.69 | 8.01 |
| COc1ccccc1-n1c(SCc2cc(=O)oc3c(C)c(C)ccc23)nc2ccccc2c1=O | > 10 | > 10 |
| Cc1sc2ncnc(Sc3ccccc3C(=O)NNc3c(Cl)cc(Cl)cc3Cl)c2c1C | > 10 | > 10 |
| CCOC(=O)c1[nH]c(C)c(C(=O)OCC(=O)Nc2ccc(S(=O)(=O)NC3=NCCCCC3)cc2)c1C | > 10 | > 10 |
| Cc1cc(C)c(C(=O)OCCC(NS(=O)(=O)c2ccc(Cl)cc2)c2ccccc2)c(C)c1 (stereo unspecified) | > 10 | > 10 |

| SMILES | IC50 [µM] | IC90 [µM] |
| --- | --- | --- |
| O=c1c(-c2ccc([N+](=O)[O-])cc2)c(-c2ccc(Cl)cc2)cc2[nH]c3ccccc3n12 | > 10 | > 10 |
| COc1cc(NC(=O)CSc2nc(N)c3c4c(sc3n2)CCCC4)c(C)cc1[N+](=O)[O-] | 3.53 | > 10 |
| C=C(C)C1CC=C(C)/C(=N\NC(=O)C(=O)N/N=C2/CC(C(=C)C)CC=C2C)C1 (stereo unspecified) | > 10 | > 10 |
| CC(=O)Nc1ccc(C(=S)NCCCN2CCCC2=O)cc1 | > 10 | > 10 |
| CCCCCCn1c(SCC(=O)Nc2sc(C(=O)N(CC)CC)c(C)c2C(=O)OCC)nc2ccccc21 | > 10 | > 10 |
| CCOC(=O)c1sc(N)c(C#N)c1CSc1nnc(-c2ccncc2)n1-c1ccc(CC)cc1 | > 10 | > 10 |
| CCCCOc1ccc(C(=O)Nc2ccc(N(c3ccccc3)C(C)C)cc2)cc1OCC | > 10 | > 10 |
| CC(C)(C)c1ccc(OCC(=O)N2CCC(C(N)=O)CC2)cc1 | > 10.4 | > 10.4 |
| CC1CCc2nc3ccccc3c(C(=O)OCCOc3ccccc3Cl)c2C1 (stereo unspecified) | > 10 | > 10 |
| N#Cc1ccc(COC(=O)c2ccc(O)cc2)cc1 | > 10 | > 10 |
| O=C(CN(Cc1ccccc1Cl)S(=O)(=O)/C=C/c1ccccc1)Nc1ccc(F)cc1Cl | > 10 | > 10 |
| CC(C)OCCCNCC(O)COCc1ccccc1Cl (stereo unspecified) | > 10 | > 10 |
| CC(C)Cn1c(N)c(C(=O)COC(=O)Cn2c(C(F)(F)F)nc3ccccc32)c(=O)n(C)c1=O | > 10 | > 10 |
| O=C(CCN1C(=O)c2ccccc2C1=O)OCc1cc(=O)oc2cc(O)ccc12 | > 10 | > 10 |
| O=C(COC(=O)c1ccc(-n2ncc(Cl)c(Cl)c2=O)cc1)Nc1ccc(F)cc1 | > 10 | > 10 |
| O=C(O)c1ccc(N=C2C=C(NS(=O)(=O)c3ccc(Cl)cc3)c3ccccc3C2=O)cc1 | > 10 | > 10 |
| Cc1ccc2c(C)cc(Sc3nc4ccccc4s3)nc2c1 | > 10 | > 10 |
| CCOC(=O)c1c(C)[nH]c(/C=C2/C(=O)N(c3ccccc3)N=C2C)c1Cc1cccc(Cl)c1 | > 10 | > 10 |
| CCOc1ccc(-c2nc(NC(=O)c3ccc(OC)c(S(=O)(=O)N(C)OC)c3)sc2C)cc1 | > 10 | > 10 |
| CC1(c2cc(F)ccc2F)NC(=O)N(CC(=O)c2cn(CCC#N)c3ccccc23)C1=O (stereo unspecified) | > 10 | > 10 |
| Cc1c(C(=O)Nc2ccc(N3CCOCC3)cc2N2CCOCC2)oc2ccc(F)cc12 | > 10 | > 10 |
| Cc1ccc(S(=O)(=O)c2ccc(NNS(=O)(=O)c3cccc([N+](=O)[O-])c3)cc2)cc1 | > 10 | > 10 |
| CCCCC1(c2ccccc2)NC(=O)N(CC(=O)Nc2ccc(C#N)c(Cl)c2)C1=O (stereo unspecified) | > 10 | > 10 |
| CCCn1c(CCC(=O)OCC(=O)c2ccc(NC(=O)CC(C)C)cc2)nc2cc(S(=O)(=O)N3CCCC3)ccc21 | > 10 | > 10 |
| O=S(=O)(Nc1ccc(OC(F)F)c(Cl)c1)c1ccc(Cl)c(Cl)c1 | > 10 | > 10 |
| O=C(Cn1cnc2sc(-c3ccccc3)cc2c1=O)Nc1nc(CN2CCCCC2)cs1 | > 10 | > 10 |
